These results are taken from patent US10894784B2, “Heteroarylbenzimidazole compounds” (BAYER PHARMA AKTIENGESELLSCHAFT, priority 2015, dated 2021).

As usually defined, the IC50 is the concentration at which inhibition is half-maximal.

Sequence of TBK1 (Q9UHD2 whole entry): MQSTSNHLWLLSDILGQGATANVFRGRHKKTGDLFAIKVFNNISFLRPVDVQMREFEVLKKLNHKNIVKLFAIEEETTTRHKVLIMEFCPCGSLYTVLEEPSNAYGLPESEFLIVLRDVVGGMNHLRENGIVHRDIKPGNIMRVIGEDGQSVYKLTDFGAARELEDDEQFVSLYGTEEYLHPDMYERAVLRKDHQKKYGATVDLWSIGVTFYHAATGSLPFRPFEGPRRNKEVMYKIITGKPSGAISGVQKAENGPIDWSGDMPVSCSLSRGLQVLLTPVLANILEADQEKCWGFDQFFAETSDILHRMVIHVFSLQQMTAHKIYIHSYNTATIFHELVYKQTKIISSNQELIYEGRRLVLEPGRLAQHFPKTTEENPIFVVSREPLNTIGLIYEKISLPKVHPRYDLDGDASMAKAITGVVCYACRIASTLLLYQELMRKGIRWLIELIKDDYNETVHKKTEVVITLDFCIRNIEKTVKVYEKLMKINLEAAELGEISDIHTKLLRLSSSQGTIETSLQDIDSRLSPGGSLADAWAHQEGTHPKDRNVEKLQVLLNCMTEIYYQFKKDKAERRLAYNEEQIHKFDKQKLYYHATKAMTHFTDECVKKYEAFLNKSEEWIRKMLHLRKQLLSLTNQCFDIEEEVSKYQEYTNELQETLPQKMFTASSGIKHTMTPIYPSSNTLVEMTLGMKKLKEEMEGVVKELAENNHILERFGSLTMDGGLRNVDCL

This experiment addresses TBK1 (Homo sapiens (Human), UniProt Q9UHD2). The experiment in a line: TBK1 low ATP kinase assay (in vitro assay 1). Particulars: in vitro assay 1, read-out: TBK1 low ATP kinase assay IC50. The class given is biochemical.
Consider `CC(C)c1cc(-c2ccc3nc(Nc4cc(CN5CCN(C(=O)C6CC6)CC5)ccn4)[nH]c3c2)ncn1` [Example 78.02, cyclopropyl(4-{[2-({6-[6-(propan-2-yl)pyrimidin-4-yl]-1H-benzimidazol-2-yl}amino)pyridin-4-yl]methyl}piperazin-1-yl)methanone], for which the IC50 came to 15 nM.

`CC(c1ccnc(Nc2nc3ccc(-c4cnn(CC5CC5)c4)c(F)c3[nH]2)c1)N1CCN(C(=O)CC(F)(F)F)CC1` (single isomer, unassigned) [Example 121.02]: the IC50 was 2.5 nM.

On to `COc1c(NC2CC2)ncnc1-c1ccc2nc(Nc3cc(CN4CCN(C(=O)OC(C)(C)C)CC4)ccn3)[nH]c2c1` [Example 108.01, tert-butyl 4-{[2-({6-[6-(cyclopropylamino)-5-methoxypyrimidin-4-yl]-1H-benzimidazol-2-yl}amino)pyridin-4-yl]methyl}piperazine-1-carboxylate], for which the half-inhibitory concentration (IC50) was determined as 35 nM.

As to `COc1c(NCC2CC2)ncnc1-c1ccc2nc(Nc3cc(CN4CCN(C(=O)CC(F)(F)F)CC4)ccn3)[nH]c2c1` [Example 109.01.02, 1-[4-({2-[(6-{6-[(cyclopropylmethyl)amino]-5-methoxypyrimidin-4-yl}-1H-benzimidazol-2-yl)amino]pyridin-4-yl}methyl)piperazin-1-yl]-3,3,3-trifluoropropan-1-one], the IC50 was 5.4 nM.

Take `COc1cncnc1-c1ccc2nc(Nc3cc(C(C)N4CCN(C(=O)CC(F)(F)F)CC4)ccn3)[nH]c2c1` (racemic) [Example 35.02.01, (rac)-3,3,3-trifluoro-1-{4-[1-(2-{[6-(5-methoxypyrimidin-4-yl)-1H-benzimidazol-2-yl]amino}pyridin-4-yl)ethyl]piperazin-1-yl}propan-1-one]: the IC50 stood at 7.67 nM.

In the case of `COc1c(Cl)ncnc1-c1ccc2nc(Nc3cc(CN4CCN(C(=O)OC(C)(C)C)CC4)ccn3)[nH]c2c1` [Compound 60.01, tert-butyl 4-[(2-{[6-(6-chloro-5-methoxypyrimidin-4-yl)-1H-benzimidazol-2-yl]amino}pyridin-4-yl)methyl]piperazine-1-carboxylate], the IC50 came to 110 nM.

Regarding `Cc1cc(-c2ccc3nc(Nc4cc(C(C)N5CCN(C(=O)C6CC6)CC5)ccn4)[nH]c3c2)ncn1` (racemic) [Example 30.02.03, (rac)-cyclopropyl{4-[1-(2-{[6-(6-methylpyrimidin-4-yl)-1H-benzimidazol-2-yl]amino}pyridin-4-yl)ethyl]piperazin-1-yl}methanone], the IC50 worked out at 3.73 nM.

Consider `COc1c(-c2ccc3nc(Nc4cc(CN5CCN(C(=O)CC(F)(F)F)CC5)ccn4)[nH]c3c2)ncnc1N(C)C` [Example 107.01.03, 1-(4-{[2-({6-[6-(dimethylamino)-5-methoxypyrimidin-4-yl]-1H-benzimidazol-2-yl}amino)pyridin-4-yl]methyl}piperazin-1-yl)-3,3,3-trifluoropropan-1-one], for which the concentration for half-maximal inhibition (IC50) was determined as 13 nM.

For `CCOc1cnc(C)cc1-c1ccc2nc(Nc3cc(CN4CCN(C(=O)CC5CC5)CC4)ccn3)[nH]c2c1` [Example 09.03, 2-cyclopropyl-1-{4-[(2-{[6-(5-ethoxy-2-methylpyridin-4-yl)-1H-benzimidazol-2-yl]amino}pyridin-4-yl)methyl]piperazin-1-yl}ethanone], the concentration for half-maximal inhibition (IC50) is 324 nM.

As for `CN(C)c1cc(-c2ccc3nc(Nc4cc(CN5CCN(C(=O)OC(C)(C)C)CC5)ccn4)[nH]c3c2)ncn1` [Example 143.01, tert-butyl 4-{[2-({6-[6-(dimethylamino)pyrimidin-4-yl]-1H-benzimidazol-2-yl}amino)pyridin-4-yl]methyl}piperazine-1-carboxylate], the half-maximal inhibitory concentration (IC50) worked out at 18 nM.

As for `CC(c1ccnc(Nc2nc3ccc(-c4cc(N5CC(F)(F)C5)ncn4)cc3[nH]2)c1)N1CCN(C(=O)C2(C(F)(F)F)CC2)CC1` (single isomer, unassigned) [Example 116.04, (4-{(1R or 1S)-1-[2-({6-[6-(3,3-difluoroazetidin-1-yl)pyrimidin-4-yl]-1H-benzimidazol-2-yl}amino)pyridin-4-yl]ethyl}piperazin-1-yl)[1-(trifluoromethyl)cyclopropyl]methanone], the IC50 was 1 nM.
